Laboratory results published in patent US8829203B2, “3′,6-substituted indirubins and their biological applications” (Centre National de la Recherche Scientifique (CNRS), priority 2008, dated 2014).
Where a name gives a salt, the structure may show the parent alone.

Columns and labels:
[1] = tested on: GSK-3-phosphorylated β-catenin; test: β-catenin phosphorylation at GSK-3 sites in SH-SY5Y cells (Western blot / ELISA); assay type: cell-based, human; details: 6 hours, 10 μM or range of concentrations, with 2 μM MG132
Protocol: 2a. […] The level of GSK-3-phosphorylated β-catenin was estimated by Western blotting following SDS-PAGE, using an antibody that specifically cross-reacts with GSK-3 phosphorylated β-catenin. […] 2b. Dose-response curves for a selection of indirubins were run in an ELISA assay using the same antibodies directed against GSK-3 phosphorylated β-catenin. SH-SY5Y cells were exposed for 6 hours to a range of concentrations of each indirubin, in the presence of MG132, and extracts were assessed in the ELISA assay. Activity was expressed as percentage of phosphorylated β-catenin in untreated control cells.
Nearly confluent SH-SY5Y human neuroblastoma cells were grown in 96 plates in DMEM (supplemented with 10% FCS and antibiotics). Cells were co-treated with tested compounds and 2 μM MG132 (to allow accumulation of phosphorylated β-catenin) for 6 hours. […] Cells were then subjected to an ELISA assay using antibodies directed against Ser33/Ser37/Thr41-phosphorylated (1:1000) p-catenin obtained from Cell Signaling Technology. Results are expressed in percentage of maximal β-Catenin phosphorylation, i.e. in untreated cells exposed to MG132 only as positive control (100% phosphorylation).
Cells were resuspended, lysed for 30 min at 4° C. in Homogenization Buffer and sonicated. After centrifugation (14000 r.p.m. for 15 min at 4° C.), the protein concentration was determined in the supernatants by the Bradford protein assay (Bio-Rad). Following heat denaturation for 5 min, proteins were separated by 10% NuPAGE pre-cast Bis-Tris Acetate polyacrylamide mini gel (Invitrogen) with MOPS SDS running buffer. Proteins were transferred to 0.45 μm nitrocellulose filters (Schleicher and Schuell). These were blocked with 5% low fat milk in Tris-Buffered Saline—Tween-20, incubated overnight at 4° C. with antibodies directed against Ser33/Ser37/Thr41-phosphorylated β-catenin (1:1000) (Cell Signaling Technology) and analyzed by Enhanced Chemiluminescence (ECL, Amersham).
Cells were exposed to various concentrations […] of each indirubin in the presence of a constant level of MG132 (an inhibitor of the proteasome which prevented the rapid degradation of β-catenin once phosphorylated by GSK-3). The level of GSK-3-phosphorylated was estimated either by Western blotting (with an antibody that specifically cross-reacts with β-catenin when phosphorylated at a GSK-3 site) following SDS-PAGE (FIG. 2a) or by an ELISA assay (FIG. 2b). […] Dose-response curves were obtained with ELISA assay (FIG. 2b).

GSK-3α/β = GSK-3α/β kinase assay (GS-1 substrate, 15 μM ATP); assay type: biochemical, porcine; details: 30° C., 30 min, read-out: GSK3 IC50
Protocol: (§1) Blank values were subtracted and activities calculated as pmoles of phosphate incorporated during a […] incubation. The activities were expressed in % of the maximal activity, i.e. in the absence of inhibitors. Controls were performed with appropriate dilutions of dimethylsulfoxide. Phosphorylation of the substrate was assessed by the P81 phosphocellulose assay.
GSK-3α/β was purified from porcine brain by affinity chromatography on immobilized axin^5. […] ATP (3,000 Ci/mmol; 10 mCi/ml) in a final volume of 30 μl. After 30 min. incubation at 30° C., 25 μl aliquots of supernatant were processed as described above.

CDK1/cyclin B = CDK1/cyclin B kinase assay (histone H1, 15 μM ATP); assay type: biochemical, starfish (Marthasterias glacialis); details: 30° C., 30 min
CDK5/p25 = CDK5/p25 (Homo sapiens, UniProt Q00535); test: CDK5/p25 kinase assay (histone H1, 15 μM ATP); assay type: biochemical; details: 30° C., 30 min
Chain of CDK5/p25 (Q00535 whole entry): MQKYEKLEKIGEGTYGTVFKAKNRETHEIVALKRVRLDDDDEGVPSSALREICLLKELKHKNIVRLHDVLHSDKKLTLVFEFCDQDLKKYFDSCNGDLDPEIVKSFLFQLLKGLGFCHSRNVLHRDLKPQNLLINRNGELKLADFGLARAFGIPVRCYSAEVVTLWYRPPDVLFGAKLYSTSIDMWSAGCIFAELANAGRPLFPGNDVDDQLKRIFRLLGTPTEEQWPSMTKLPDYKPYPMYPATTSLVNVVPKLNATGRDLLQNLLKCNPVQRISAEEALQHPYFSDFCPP
Chain of CDK5/p25 (Q15078 99-307 partner limits assumed): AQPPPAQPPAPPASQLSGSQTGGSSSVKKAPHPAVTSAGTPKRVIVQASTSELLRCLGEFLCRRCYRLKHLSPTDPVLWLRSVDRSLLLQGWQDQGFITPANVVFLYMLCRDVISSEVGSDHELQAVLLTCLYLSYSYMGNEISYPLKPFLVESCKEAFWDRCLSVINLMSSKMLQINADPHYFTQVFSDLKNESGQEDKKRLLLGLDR
Protocol: as §1
CDK5/p25 was reconstituted by mixing equal amounts of recombinant human CDK5 and p25 expressed in E. coli as GST (Glutathione-S-transferase) fusion proteins and purified by affinity chromatography on glutathione-agarose (p25 is a truncated version of p35, the 35 kDa CDK5 activator). Its activity was assayed with histone H1 in buffer C as described for CDK1/cyclin B.

| Compound | Inhibition of β-catenin phosphorylation at GSK-3 sites [1] | IC50 (GSK-3α/β) | IC50 (CDK1/cyclin B) | melting point | IC50 (CDK5/p25) |
| --- | --- | --- | --- | --- | --- |
| CN1C(=O)C(=C2Nc3ccccc3C2=NO)c2ccc(Br)cc21 [1-methyl-6BIO, reference compound] | ineffective | – | – | – | – |
| O=C1Nc2cc(Br)ccc2/C1=C1/Nc2ccccc2/C1=N\OCCBr [Cpd 1, (2′Z-3′E)-6-Bromoindirubin-3-[O-(2-bromoethyl)-oxime]] | – | 140 nM | > 10000 nM | 252 °C | – |
| O=C1Nc2cc(Br)ccc2/C1=C1/Nc2ccccc2/C1=N\OCCO [Cpd 2, (2′Z-3′E)-6-Bromoindirubin-3′-[O-(2-hydroxyethyl)-oxime]] | – | 1700 nM | 1700 nM | – | 5000 nM |
| O=C1Nc2cc(Br)ccc2/C1=C1/Nc2ccccc2/C1=N\OCC(O)CO (stereo not shown) [Cpd 3, (2′Z-3′E)-6-Bromoindirubin-3′-[O-(2,3-dihydroxypropyl)-oxime]] | most efficient | 34 nM | 110 nM | > 300 °C | 25 nM |
| CCN(CC)C(=O)O/N=C1/C(=C2/C(=O)Nc3cc(Br)ccc32)Nc2ccccc21 [Cpd 4, (2′Z-3′E)-6-Bromoindirubin-3′-[O-(N,N-diethylcarbamyl)-oxime]] | – | 30 nM | > 10000 nM | 237 °C | – |
| CN(C)CCO/N=C1/C(=C2/C(=O)Nc3cc(Br)ccc32)Nc2ccccc21 [Cpd 5, (2′Z-3′E)-6-Bromoindirubin-3′-[O-(2-dimethylaminoethyl)-oxime]] | most efficient | – | – | – | – |
| CCN(CC)CCO/N=C1/C(=C2/C(=O)Nc3cc(Br)ccc32)Nc2ccccc21 [Cpd 6, (2′Z-3′E)-6-Bromoindirubin-3′-[O-(2-diethylaminoethyl)-oxime]] | – | 35 nM | 90 nM | – | 20 nM |
| O=C1Nc2cc(Br)ccc2/C1=C1/Nc2ccccc2/C1=N\OCCN1CCCC1 [Cpd 7, (2′Z-3′E)-6-Bromoindirubin-3′-[O-(2-pyrrolidin-1-ylethyl)oxime]] | – | 26 nM | 500 nM | – | 130 nM |
| O=C1Nc2cc(Br)ccc2/C1=C1/Nc2ccccc2/C1=N\OCCN1CCOCC1 [Cpd 8, (2′Z-3′E)-6-Bromoindirubin-3′-[O-(2-morpholin-1-ylethyl)oxime]] | – | – | – | 235 °C | – |
| O=C1Nc2cc(Br)ccc2/C1=C1/Nc2ccccc2/C1=N\OCCN(CCO)CCO [Cpd 9] | most efficient | – | – | 201 °C | – |
| CN(CCO/N=C1/C(=C2/C(=O)Nc3cc(Br)ccc32)Nc2ccccc21)CC(O)CO (stereo not shown) [Cpd 10, (2′Z-3′E)-6-Bromoindirubin-3′-(O-{2-[-methyl, N-(2,3-dihydroxypropyl)amino]ethyl}oxime]] | – | 67 nM | 240 nM | 195 °C | 240 nM |
| O=C1Nc2cc(Br)ccc2/C1=C1/Nc2ccccc2/C1=N\OCCN1CCNCC1 [Cpd 11, (2′Z-3′E)-6-Bromoindirubin-3′-[O-(2-piperazine-1-ylethyl)oxime]] | most efficient | – | – | – | – |
| CN1CCN(CCO/N=C2/C(=C3/C(=O)Nc4cc(Br)ccc43)Nc3ccccc32)CC1 [Cpd 12, (2′Z-3′E)-6-Bromoindirubin-3′-{O-[2-(4-methyl-piperazin-1-yl)ethyl]oxime}] | most efficient | 7 nM | 400 nM | – | 400 nM |
| O=C1Nc2cc(Br)ccc2/C1=C1/Nc2ccccc2/C1=N\OCCN1CCN(CCO)CC1 [Cpd 13] | most efficient | – | – | – | – |
| COCCN1CCN(CCO/N=C2/C(=C3/C(=O)Nc4cc(Br)ccc43)Nc3ccccc32)CC1 [Cpd 14] | – | 11 nM | 2800 nM | – | 500 nM |
| CN(C)CCO/N=C1/C(=C2/C(=O)Nc3cc(Br)ccc32)Nc2ccccc21 [Cpd 16, (2′Z-3′)-6-Bromoindirubin-3′-[O-(2-dimethylaminoethyl)oxime]Hydrochloride] | most efficient | – | – | – | – |
| CCN(CC)CCO/N=C1/C(=C2/C(=O)Nc3cc(Br)ccc32)Nc2ccccc21 [Cpd 17, (2′Z-3′E)-6-Bromoindirubin-3′-[O-(2-diethylaminoethyl)oxime]Hydrochloride] | – | 27 nM | 190 nM | – | 40 nM |
| O=C1Nc2cc(Br)ccc2/C1=C1/Nc2ccccc2/C1=N\OCCN1CCCC1 [Cpd 18, (2′Z-3′)-6-Bromoindirubin-3′-[O-(2-pyrrolidin-1-ylethyl)oxime]Hydrochloride] | – | 54 nM | 450 nM | – | 100 nM |
| CN(CCON=C1C(=C2C(=O)Nc3cc(Br)ccc32)Nc2ccccc21)CC(O)CO (stereo not shown) [Cpd 21] | – | 23 nM | 150 nM | – | 100 nM |
| O=C1Nc2cc(Br)ccc2/C1=C1/Nc2ccccc2/C1=N\OCCN1CCNCC1 [Cpd 22, (2′Z-3′E)-6-Bromoindirubin-3′-[O-(2-piperazine-1-ylethyl)oxime]Dihydrochloride] | most efficient | – | – | – | 180 nM |
| CN1CCN(CCO/N=C2/C(=C3/C(=O)Nc4cc(Br)ccc43)Nc3ccccc32)CC1 [Cpd 23, (2′Z-3′E)-6-Bromoindirubin-3′-{O-[2-(4-methylpiperazin-1-yl)ethyl]oxime}Dihydrochloride] | most efficient | 5 nM | 300 nM | – | 300 nM |
| O=C1Nc2cc(Br)ccc2/C1=C1/Nc2ccccc2/C1=N\OCCN1CCN(CCO)CC1 [Cpd 24] | most efficient | – | – | – | – |
| COCCN1CCN(CCO/N=C2/C(=C3/C(=O)Nc4cc(Br)ccc43)Nc3ccccc32)CC1 [Cpd 25] | – | 20 nM | 1000 nM | – | 400 nM |
| O=C1Nc2cc(Br)ccc2/C1=C1/Nc2ccccc2/C1=N\OCCN1CCN(CCOCCO)CC1 [Cpd 26, (2′Z-3′E)-6-Bromoindirubin-3′-[O-(2-{4-[2-(2-hydroxyethoxy)-ethyl]piperazin-1-yl}ethyl)oxime]Dihydrochloride] | – | 33 nM | 500 nM | – | 330 nM |
